Source: US9624166B2, “Tetracycline compounds” (Tetraphase Pharmaceuticals, Inc., priority 2009, dated 2017)

Columns and labels:
[1] = system: S. aureus ATCC 13709 (Smith); test: Murine systemic infection (septicemia) model with intraperitoneal challenge of S. aureus; type: in vivo; details: CD-1 female mice, i.v. one hour post-challenge, SA Smith septicemia, survival after 48 hours, Probit analysis
Experimental: Murine Systemic Infection Model with Intraperitoneal Challenge of S. aureus
In the model, CD-1 female mice (18-20 grams) were injected intraperitoneally with S. aureus ATCC 13709 (Smith) (1-2×10^6/mouse) mixed with 5% hog gastric mucin, a bacterial inoculum previously established through virulence studies required to achieve 90-100% lethality within 24-48 hours. Typically, six mice were treated intravenously per dose group one hour post-challenge with either compound 101, compound 105, compound 145, compound 153, compound 166, and compound 218, tetracycline or tigecycline at doses ranging from 0.05-10 mg/kg. After 48 hours, percent survival was calculated and the dose (mg/kg) effecting 50% survival, the protective dose 50% (PD50), was reported along as calculated by Probit analysis.
The PD50 values of compound 101, compound 105, compound 145, compound 153, compound 166, and compound 218 and comparators tigecycline and tetracycline in the S. aureus ATCC 13709 mouse septicemia model are described in Table 6.

[2] = system: E. coli ATCC 25922 (EC107, wt, control); test: MIC assay, EC107; type: cell-based; details: numeric MIC of control compounds
Experimental: (§1) Minimum Inhibitory Concentration (MIC) Assay
(§2) MICs were determined according to the Clinical and Laboratory Standards Institute (CLSI) guidances (e.g., CLSI. Performance standards for antimicrobial susceptibility testing; nineteenth information supplement. CLSI document M100-S19, CLSI, 940 West Valley Road, Suite 1400, Wayne, Pa. 19087-1898, USA, 2009). Briefly, frozen bacterial strains were thawed and subcultured onto Mueller Hinton Broth (MHB) or other appropriate media (Streptococcus requires blood and Haemophilus requires hemin and NAD). Following incubation overnight, the strains were subcultured onto Mueller Hinton Agar and again incubated overnight. […] Isolated colonies were selected to prepare a starting inoculum equivalent to a 0.5 McFarland standard. The starting inoculum was diluted 1:125 using MHB for further use. Test compounds were prepared by dilution in sterile water to a final concentration of 5.128 mg/mL. Antibiotics (stored frozen, thawed and used within 3 hours of thawing) and compounds were further diluted to the desired working concentrations.
(§3) The assays were run as follows. Fifty μL of MHB was added to wells 2-12 of a 96-well plate. One hundred μL of appropriately diluted antibiotics was added to well 1. Fifty μL of antibiotics was removed from well 1 and added to well 2 and the contents of well 2 mixed by pipetting up and down five times. Fifty μL of the mixture in well 2 was removed and added to well 3 and mixed as above. Serial dilutions were continued in the same manner through well 12. Fifty μL was removed from well 12 so that all contained 50 μL. Fifty μL of the working inoculum was then added to all test wells. A growth control well was prepared by adding 50 μL of working inoculum and 50 μL of MHB to an empty well. The plates were then incubated at 37° C. overnight, removed from the incubator and each well was read on a plate reading mirror. The lowest concentration (MIC) of test compound that inhibited the growth of the bacteria was recorded.
(§4) Fifteen bacterial strains, listed below, were examined in minimum inhibitory concentration (MIC) assays.

[3] = system: K. pneumoniae ATCC 13883 (KP109, wt); test: MIC assay, KP109; type: cell-based; details: numeric MIC of control compounds
Experimental: as §1, §2, §3, §4

[4] = system: E. cloacae ATCC 13047 (EC108, wt); test: MIC assay, EC108; type: cell-based; details: numeric MIC of control compounds
Experimental: as §1, §2, §3, §4

[5] = system: A. baumanii ATCC 19606 (AB110, wt); test: MIC assay, AB110; type: cell-based; details: numeric MIC of control compounds
Experimental: as §1, §2, §3, §4

[6] = system: P. aeruginosa ATCC 27853 (PA111, wt, control); test: MIC assay, PA111; type: cell-based; details: numeric MIC of control compounds
Experimental: as §1, §2, §3, §4

Compound | PD50 (protective dose 50%, dose effecting 50% survival) [1] | MIC EC107 [2] | MIC KP109 [3] | MIC EC108 [4] | MIC AB110 [5] | MIC PA111 [6]
COc1cc(NC(=O)CN2CCCC2)c(O)c2c1C[C@H]1C[C@H]3[C@H](N(C)C)C(O)=C(C(N)=O)C(=O)[C@@]3(O)C(O)=C1C2=O [Compound 101] | 0.36 mg/kg | – | – | – | – | –
COc1cc(NC(=O)CN(C)C)c(O)c2c1C[C@H]1C[C@H]3[C@H](N(C)C)C(O)=C(C(N)=O)C(=O)[C@@]3(O)C(O)=C1C2=O [Compound 105] | 0.25 mg/kg | – | – | – | – | –
COc1cc(NS(=O)(=O)c2ccccc2)c(O)c2c1C[C@H]1C[C@H]3[C@H](N(C)C)C(O)=C(C(N)=O)C(=O)[C@@]3(O)C(O)=C1C2=O [Compound 153] | >10 mg/kg | – | – | – | – | –
COc1cc(NS(=O)(=O)CC(C)C)c(O)c2c1C[C@H]1C[C@H]3[C@H](N(C)C)C(O)=C(C(N)=O)C(=O)[C@@]3(O)C(O)=C1C2=O [Compound 166] | 4.3 mg/kg | – | – | – | – | –
CCN(C)CC(=O)Nc1cc(OC(F)(F)F)c2c(c1O)C(=O)C1=C(O)[C@]3(O)C(=O)C(C(N)=O)=C(O)[C@@H](N(C)C)[C@@H]3C[C@@H]1C2 [Compound 218] | 1.4 mg/kg | – | – | – | – | –
CN(C)c1ccc(O)c2c1C[C@H]1C[C@H]3[C@H](N(C)C)C(O)=C(C(N)=O)C(=O)[C@@]3(O)C(O)=C1C2=O [Minocycline] | – | 0.5 µg/mL | 1 µg/mL | 2 µg/mL | 0.06 µg/mL | 16 µg/mL
CN(C)[C@@H]1C(O)=C(C(N)=O)C(=O)[C@@]2(O)C(O)=C3C(=O)c4c(O)cccc4C[C@H]3C[C@@H]12 [Sancycline] | – | 8 µg/mL | 8 µg/mL | 8 µg/mL | 0.25 µg/mL | > 32 µg/mL
CN(C)[C@@H]1C(O)=C(C(N)=O)C(=O)[C@@]2(O)C(O)=C3C(=O)c4c(O)cccc4[C@@](C)(O)[C@H]3C[C@@H]12 [Tetracycline, tetracycline] | 1.0 mg/kg | – | – | – | – | –
CN(C)c1cc(NC(=O)CNC(C)(C)C)c(O)c2c1C[C@H]1C[C@H]3[C@H](N(C)C)C(O)=C(C(N)=O)C(=O)[C@@]3(O)C(O)=C1C2=O [Tigecycline, tigecycline] | 0.97 mg/kg | 0.03 µg/mL | 0.125 µg/mL | 0.25 µg/mL | 0.25 µg/mL | 8 µg/mL
